Measurements from ChEMBL document CHEMBL4004803, “Syntheses and antibacterial activity of soluble 9-bromo substituted indolizinoquinoline-5,12-dione derivatives” (Eur J Med Chem, 2017).
≈ marks a conversion by molar mass, not a printed value.

How the values were obtained:
Staphylococcus aureus [1] = assay: Antibacterial activity against methicillin-resistant Staphylococcus aureus 316031 clinical isolate after 20 to 24 hrs by two-fold microdilution method; type: functional
Staphylococcus aureus [2] = assay: Antibacterial activity against methicillin-resistant Staphylococcus aureus 112106 clinical isolate after 20 to 24 hrs by two-fold microdilution method; type: functional
[3] = Solubility of the compound in water at 25 degC measured after shaking for 4 hrs by UV method; type: physicochemical; settings: water
Staphylococcus aureus [4] = assay: Antibacterial activity against methicillin-resistant Staphylococcus aureus 215073 clinical isolate after 20 to 24 hrs by two-fold microdilution method; type: functional
Staphylococcus aureus [5] = assay: Antibacterial activity against methicillin-resistant Staphylococcus aureus 1214023 clinical isolate after 20 to 24 hrs by two-fold microdilution method; type: functional
Staphylococcus aureus [6] = assay: Antibacterial activity against methicillin-resistant Staphylococcus aureus 111423 clinical isolate after 20 to 24 hrs by two-fold microdilution method; type: functional
Staphylococcus aureus [7] = assay: Antibacterial activity against methicillin-resistant Staphylococcus aureus 111625 clinical isolate after 20 to 24 hrs by two-fold microdilution method; type: functional
Staphylococcus aureus [8] = assay: Antibacterial activity against methicillin-resistant Staphylococcus aureus GLH14 clinical isolate after 20 to 24 hrs by two-fold microdilution method; type: functional
Staphylococcus aureus [9] = assay: Antibacterial activity against methicillin-resistant Staphylococcus aureus 1211026 clinical isolate after 20 to 24 hrs by two-fold microdilution method; type: functional
Staphylococcus aureus [10] = assay: Antibacterial activity against methicillin-resistant Staphylococcus aureus 20534 clinical isolate after 20 to 24 hrs by two-fold microdilution method; type: functional
Staphylococcus aureus [11] = assay: Antibacterial activity against methicillin-resistant Staphylococcus aureus 110414 clinical isolate after 20 to 24 hrs by two-fold microdilution method; type: functional
Staphylococcus aureus [12] = assay: Antibacterial activity against methicillin-resistant Staphylococcus aureus 531220 clinical isolate after 20 to 24 hrs by two-fold microdilution method; type: functional
Staphylococcus aureus [13] = assay: Antibacterial activity against methicillin-resistant Staphylococcus aureus 1212221 clinical isolate after 20 to 24 hrs by two-fold microdilution method; type: functional
Staphylococcus aureus [14] = assay: Antibacterial activity against methicillin-resistant Staphylococcus aureus 518036 clinical isolate after 20 to 24 hrs by two-fold microdilution method; type: functional
Staphylococcus aureus [15] = assay: Antibacterial activity against methicillin-resistant Staphylococcus aureus 1103006 clinical isolate after 20 to 24 hrs by two-fold microdilution method; type: functional
Staphylococcus aureus [16] = assay: Antibacterial activity against methicillin-resistant Staphylococcus aureus 20339 clinical isolate after 20 to 24 hrs by two-fold microdilution method; type: functional
Staphylococcus aureus [17] = assay: Antibacterial activity against methicillin-resistant Staphylococcus aureus 502025 clinical isolate after 20 to 24 hrs by two-fold microdilution method; type: functional
Staphylococcus aureus [18] = assay: Antibacterial activity against methicillin-resistant Staphylococcus aureus 1025022 clinical isolate after 20 to 24 hrs by two-fold microdilution method; type: functional
Escherichia coli = assay: Antibacterial activity against Escherichia coli ATCC 25922 after 20 to 24 hrs by two-fold microdilution method; type: functional
Staphylococcus aureus [19] = assay: Antibacterial activity against methicillin-resistant Staphylococcus aureus 519030 clinical isolate after 20 to 24 hrs by two-fold microdilution method; type: functional
Staphylococcus aureus [20] = assay: Antibacterial activity against methicillin-resistant Staphylococcus aureus 1207026 clinical isolate after 20 to 24 hrs by two-fold microdilution method; type: functional
Staphylococcus aureus [21] = assay: Antibacterial activity against methicillin-resistant Staphylococcus aureus 131215 clinical isolate after 20 to 24 hrs by two-fold microdilution method; type: functional
Staphylococcus aureus [22] = assay: Antibacterial activity against methicillin-resistant Staphylococcus aureus 1024010 clinical isolate after 20 to 24 hrs by two-fold microdilution method; type: functional
Staphylococcus aureus [23] = assay: Antibacterial activity against methicillin-resistant Staphylococcus aureus 202045 clinical isolate after 20 to 24 hrs by two-fold microdilution method; type: functional
Staphylococcus aureus [24] = assay: Antibacterial activity against methicillin-resistant Staphylococcus aureus 908046 clinical isolate after 20 to 24 hrs by two-fold microdilution method; type: functional
Staphylococcus aureus [25] = assay: Antibacterial activity against methicillin-resistant Staphylococcus aureus 316038 clinical isolate after 20 to 24 hrs by two-fold microdilution method; type: functional
Staphylococcus aureus [26] = assay: Antibacterial activity against methicillin-resistant Staphylococcus aureus 130031 clinical isolate after 20 to 24 hrs by two-fold microdilution method; type: functional
Staphylococcus aureus [27] = assay: Antibacterial activity against methicillin-resistant Staphylococcus aureus 912014 clinical isolate after 20 to 24 hrs by two-fold microdilution method; type: functional
Staphylococcus aureus [28] = assay: Antibacterial activity against methicillin-resistant Staphylococcus aureus 1012039 clinical isolate after 20 to 24 hrs by two-fold microdilution method; type: functional
Staphylococcus aureus [29] = assay: Antibacterial activity against methicillin-resistant Staphylococcus aureus 1216052 clinical isolate after 20 to 24 hrs by two-fold microdilution method; type: functional
Staphylococcus aureus [30] = assay: Antibacterial activity against methicillin-resistant Staphylococcus aureus 224001 clinical isolate after 20 to 24 hrs by two-fold microdilution method; type: functional
Staphylococcus aureus [31] = assay: Antibacterial activity against methicillin-resistant Staphylococcus aureus 1215028 clinical isolate after 20 to 24 hrs by two-fold microdilution method; type: functional
Staphylococcus aureus [32] = assay: Antibacterial activity against methicillin-resistant Staphylococcus aureus 519238 clinical isolate after 20 to 24 hrs by two-fold microdilution method; type: functional
Staphylococcus aureus [33] = assay: Antibacterial activity against methicillin-resistant Staphylococcus aureus 120827 clinical isolate after 20 to 24 hrs by two-fold microdilution method; type: functional
Staphylococcus aureus [34] = assay: Antibacterial activity against methicillin-resistant Staphylococcus aureus 1106003 clinical isolate after 20 to 24 hrs by two-fold microdilution method; type: functional
Staphylococcus aureus [35] = assay: Antibacterial activity against methicillin-resistant Staphylococcus aureus 304243 clinical isolate after 20 to 24 hrs by two-fold microdilution method; type: functional
Staphylococcus aureus [36] = assay: Antibacterial activity against methicillin-resistant Staphylococcus aureus 110328-1 clinical isolate after 20 to 24 hrs by two-fold microdilution method; type: functional
Staphylococcus aureus [37] = assay: Antibacterial activity against methicillin-resistant Staphylococcus aureus 109244 clinical isolate after 20 to 24 hrs by two-fold microdilution method; type: functional
Staphylococcus aureus [38] = assay: Antibacterial activity against methicillin-resistant Staphylococcus aureus 221022 clinical isolate after 20 to 24 hrs by two-fold microdilution method; type: functional
Staphylococcus aureus [39] = assay: Antibacterial activity against methicillin-resistant Staphylococcus aureus 1212057-1 clinical isolate after 20 to 24 hrs by two-fold microdilution method; type: functional
Streptococcus pyogenes = assay: Antibacterial activity against Streptococcus pyogenes ATCC 19615 after 20 to 24 hrs by two-fold microdilution method; type: functional
Enterococcus faecalis = assay: Antibacterial activity against Enterococcus faecalis ATCC 29212 after 20 to 24 hrs by two-fold microdilution method; type: functional
Staphylococcus aureus [40] = assay: Antibacterial activity against methicillin-resistant Staphylococcus aureus clinical isolate after 20 to 24 hrs by two-fold microdilution method; type: functional
Staphylococcus aureus [41] = assay: Antibacterial activity against methicillin-resistant Staphylococcus aureus 414244 clinical isolate after 20 to 24 hrs by two-fold microdilution method; type: functional
Staphylococcus aureus [42] = assay: Antibacterial activity against methicillin-resistant Staphylococcus aureus 212014 clinical isolate after 20 to 24 hrs by two-fold microdilution method; type: functional
Staphylococcus aureus [43] = assay: Antibacterial activity against methicillin-resistant Staphylococcus aureus 219236 clinical isolate after 20 to 24 hrs by two-fold microdilution method; type: functional
Staphylococcus aureus [44] = assay: Antibacterial activity against methicillin-resistant Staphylococcus aureus 123152 clinical isolate after 20 to 24 hrs by two-fold microdilution method; type: functional

Structure (SMILES): CN1CCN(CCCCCCOC(=O)c2c3c(n4cc(Br)ccc24)C(=O)c2ncccc2C3=O)CC1
- MIC (Staphylococcus aureus [1]): 0.25 µg/mL (≈ 0.452 µM)
- MIC (Staphylococcus aureus [2]): 0.25 µg/mL (≈ 0.452 µM)
- solubility thermodynamic at 4 h [3]: 2060 µg/mL (≈ 3720 µM)
- MIC (Staphylococcus aureus [4]): 0.063 µg/mL (≈ 0.114 µM)
- MIC (Staphylococcus aureus [5]): 0.063 µg/mL (≈ 0.114 µM)
- MIC (Staphylococcus aureus [6]): 16 µg/mL (≈ 28.9 µM)
- MIC (Staphylococcus aureus [7]): 0.125 µg/mL (≈ 0.226 µM)
- MIC (Staphylococcus aureus [8]): 0.063 µg/mL (≈ 0.114 µM)
- MIC (Staphylococcus aureus [9]): 0.125 µg/mL (≈ 0.226 µM)
- MIC (Staphylococcus aureus [10]): 0.125 µg/mL (≈ 0.226 µM)
- MIC (Staphylococcus aureus [11]): 0.125 µg/mL (≈ 0.226 µM)
- MIC (Staphylococcus aureus [12]): ≤ 0.0078 µg/mL
- MIC (Staphylococcus aureus [13]): 0.063 µg/mL (≈ 0.114 µM)
- MIC (Staphylococcus aureus [14]): 0.125 µg/mL (≈ 0.226 µM)
- MIC (Staphylococcus aureus [15]): > 16 µg/mL
- MIC (Staphylococcus aureus [16]): 0.5 µg/mL (≈ 0.903 µM)
- MIC (Staphylococcus aureus [17]): 0.25 µg/mL (≈ 0.452 µM)
- MIC (Staphylococcus aureus [18]): 0.125 µg/mL (≈ 0.226 µM)
- MIC (Escherichia coli): 4 µg/mL (≈ 7.23 µM)
- MIC (Staphylococcus aureus [19]): 0.5 µg/mL (≈ 0.903 µM)
- MIC (Staphylococcus aureus [20]): 0.063 µg/mL (≈ 0.114 µM)
- MIC (Staphylococcus aureus [21]): 0.063 µg/mL (≈ 0.114 µM)
- MIC (Staphylococcus aureus [22]): 0.125 µg/mL (≈ 0.226 µM)
- MIC (Staphylococcus aureus [23]): 0.25 µg/mL (≈ 0.452 µM)
- MIC (Staphylococcus aureus [24]): 0.063 µg/mL (≈ 0.114 µM)
- MIC (Staphylococcus aureus [25]): 0.063 µg/mL (≈ 0.114 µM)
- MIC (Staphylococcus aureus [26]): 0.25 µg/mL (≈ 0.452 µM)
- MIC (Staphylococcus aureus [27]): 0.031 µg/mL (≈ 0.056 µM)
- MIC (Staphylococcus aureus [28]): 0.125 µg/mL (≈ 0.226 µM)
- MIC (Staphylococcus aureus [29]): 16 µg/mL (≈ 28.9 µM)
- MIC (Staphylococcus aureus [30]): 0.5 µg/mL (≈ 0.903 µM)
- MIC (Staphylococcus aureus [31]): 0.063 µg/mL (≈ 0.114 µM)
- MIC (Staphylococcus aureus [32]): 0.25 µg/mL (≈ 0.452 µM)
- MIC (Staphylococcus aureus [33]): 0.016 µg/mL (≈ 0.0289 µM)
- MIC (Staphylococcus aureus [34]): > 16 µg/mL
- MIC (Staphylococcus aureus [35]): 0.25 µg/mL (≈ 0.452 µM)
- MIC (Staphylococcus aureus [36]): ≤ 0.0078 µg/mL
- MIC (Staphylococcus aureus [37]): 0.125 µg/mL (≈ 0.226 µM)
- MIC (Staphylococcus aureus [38]): 0.125 µg/mL (≈ 0.226 µM)
- MIC (Staphylococcus aureus [39]): 0.031 µg/mL (≈ 0.056 µM)
- MIC (Streptococcus pyogenes): 2 µg/mL (≈ 3.61 µM)
- MIC (Enterococcus faecalis): 0.25 µg/mL (≈ 0.452 µM)
- MIC50 (Staphylococcus aureus [40]): 0.125 µg/mL (≈ 0.226 µM)
- MIC90 (Staphylococcus aureus [40]): 0.5 µg/mL (≈ 0.903 µM)
- MIC (Staphylococcus aureus [41]): 0.063 µg/mL (≈ 0.114 µM)
- MIC (Staphylococcus aureus [42]): 0.25 µg/mL (≈ 0.452 µM)
- MIC (Staphylococcus aureus [43]): 0.063 µg/mL (≈ 0.114 µM)
- MIC (Staphylococcus aureus [44]): 0.25 µg/mL (≈ 0.452 µM)
